In the Deep4Chem optical property database:
Several values for one entry are separate records, joined by “and”; a condition that tells them apart may be missing. Identical values can stand only once. Values belong to the compound of their own block, whether it stands above or below them.

Test: solvent given as SMILES

SMILES: COc1cc2c(cc1/C=C/C1=CC(=C(C#N)C#N)CC(C)(C)C1)c1ccccc1n2C
fluorescence lifetime (in C1CCOC1): 6.48 ns | fluorescence lifetime (in CC#N): 10.4 ns | fluorescence lifetime (in CCO): 7.78 ns | fluorescence lifetime (in CCOC(C)=O): 6.38 ns | fluorescence lifetime (in CN(C)C=O): 9.14 ns | fluorescence lifetime (in CS(C)=O): 8.27 ns | fluorescence lifetime (in Cc1ccccc1): 8.3 ns | fluorescence lifetime (in ClC(Cl)Cl): 9.43 ns | fluorescence lifetime (in ClCCl): 6.7 ns

SMILES: CC(C)(C)c1ccc2c(c1)c1cc(C(C)(C)C)ccc1n2-c1cc(C(=O)c2ccccn2)cc(-n2c3ccc(C(C)(C)C)cc3c3cc(C(C)(C)C)ccc32)c1
fluorescence lifetime (in c1cc(-c2cccc(-n3c4ccccc4c4ccccc43)c2)cc(-n2c3ccccc3c3ccccc32)c1): 5.3 ns

SMILES: N#C[Se]CCCCCOc1ccc2ccc(=O)oc2c1
fluorescence lifetime (in C1CCCCC1): 0.16 ns | fluorescence lifetime (in C1CCOC1): 1.17 ns | fluorescence lifetime (in C1COCCO1): 0.17 ns | fluorescence lifetime (in CC#N): 0.56 ns | fluorescence lifetime (in CCCCCCC): 0.16 ns | fluorescence lifetime (in CCO): 0.43 ns | fluorescence lifetime (in CN(C)C=O): 1.02 ns | fluorescence lifetime (in CO): 0.44 ns | fluorescence lifetime (in O): 1.75 ns | fluorescence lifetime (in OCCO): 1.46 ns

SMILES: CC(=O)[B-]1(C(C)=O)OC(c2ccc3ccccc3c2)=CC(c2ccc3ccccc3c2)=[O+]1
fluorescence lifetime (in CC#N): 5.5 ns | fluorescence lifetime (in ClC(Cl)(Cl)Cl): 1.1 ns

SMILES: COc1ccc(-c2csc(/C(C#N)=C/c3ccc(C#N)cc3)n2)cc1
fluorescence lifetime (in CC#N): 1.43 ns

SMILES: Cc1nc2c(ccc3ccc(O)cc32)oc1=O
fluorescence lifetime (in c1ccccc1): 3.9 ns

SMILES: CCOc1ccc(/C=C/c2nc(N3CCOCC3)c3c([n+]2[O-])CCCC3)cc1
fluorescence lifetime (in ClCCl): 8.2 ns

SMILES: COCCOCCOCCN1C(=O)c2cc(NCCOCCO)c3c4c(cc(NCCOCCO)c(c24)C1=O)C(=O)N(CCOCCOCCOC)C3=O
fluorescence lifetime (in CO): 8.2 ns | fluorescence lifetime (in ClC(Cl)Cl): 9.6 ns | fluorescence lifetime (in O): 4.3 ns

SMILES: COC(=O)/C(C#N)=c1\s/c(=c2/s/c(=C(/C#N)C(=O)OC)c3cc(-c4ccc(F)cc4)sc23)c2sc(-c3ccc(F)cc3)cc12
fluorescence lifetime (in Cc1ccccc1): 2.9 ns

SMILES: F[B-]1(F)n2cccc2C=C2C=CC=[N+]21
fluorescence lifetime (in C1CCCCC1): 6.47 ns | fluorescence lifetime (in CC(C)=O): 7.12 ns | fluorescence lifetime (in CCCCCC): 6.79 ns | fluorescence lifetime (in CCO): 7.02 ns | fluorescence lifetime (in CCOC(C)=O): 6.9 ns | fluorescence lifetime (in CO): 7.35 ns and 7.33 ns | fluorescence lifetime (in ClCCl): 6.78 ns | fluorescence lifetime (in OCC(F)(F)F): 8.23 ns

SMILES: Cc1cc2nc3c(=O)n(C)c(=O)n(C)c3nc2cc1C
fluorescence lifetime (in CC#N): 0.64 ns

SMILES: CC1=[N+]2C(=Cc3cccn3[B-]2(F)F)C=C1
fluorescence lifetime (in CCCCCC): 6.75 ns | fluorescence lifetime (in CO): 6.96 ns | fluorescence lifetime (in ClCCl): 6.2 ns

SMILES: CC1=[N+]2C(=C(c3ccc(C=O)cc3)c3ccc(C)n3[B-]2(F)F)C=C1c1cc2n(c1)[B-](F)(F)[N+]1=CC=CC1=C2c1c(C)cc(C)cc1C
fluorescence lifetime (in C1CCCCC1): 2.7 ns | fluorescence lifetime (in CCOC(C)=O): 0.9 ns

SMILES: COc1ccc2c(c1)sc1[n+]2[B-](F)(F)OC(c2ccc(N(C)C)cc2)=N1
fluorescence lifetime (in Cc1ccccc1): 1.59 ns

The remaining lines, values ahead:

fluorescence lifetime (in ClC(Cl)Cl): 8.46 ns
SMILES: CCN(CC)c1ccc2cc(-c3ccc(-c4ccc5ccc6c(-c7ccc(-c8cc9ccc(N(CC)CC)cc9oc8=O)cc7)ccc7ccc4c5c76)cc3)c(=O)oc2c1

fluorescence lifetime (in C1CCCCC1): 0.8 ns | fluorescence lifetime (in CC#N): 1.2 ns | fluorescence lifetime (in CO): 1.1 ns | fluorescence lifetime (in ClCCl): 1.1 ns
SMILES: C(C#Cc1ccc2ccc3cccc4ccc1c2c34)#Cc1cccc2ccccc12

fluorescence lifetime (in ClCCl): 2 ns
SMILES: C[Si]1(C)c2ccc(-c3cccs3)cc2C=Cc2cc(-c3cccs3)ccc21

fluorescence lifetime (in CCCCC): 0.74 ns | fluorescence lifetime (in CCCCCC): 0.69 ns | fluorescence lifetime (in CCCCCCC): 0.7 ns | fluorescence lifetime (in CCCCCCCC): 0.7 ns | fluorescence lifetime (in CCCCCCCCC): 0.72 ns | fluorescence lifetime (in CCCCCCCCCC): 0.79 ns | fluorescence lifetime (in CCCCCCCCCCCC): 0.78 ns | fluorescence lifetime (in CCCCCCCCCCCCC): 0.82 ns | fluorescence lifetime (in CCCCCCCCCCCCCCC): 0.81 ns | fluorescence lifetime (in CCCCCCCCCCCCCCCC): 0.82 ns | fluorescence lifetime (in CCCCCCCCCCO): 0.79 ns | fluorescence lifetime (in CCCCCCCCCO): 0.87 ns | fluorescence lifetime (in CCCCCCCCO): 0.84 ns | fluorescence lifetime (in CCCCCCCO): 0.8 ns | fluorescence lifetime (in CCCCCCO): 0.81 ns | fluorescence lifetime (in CCCCCO): 0.77 ns | fluorescence lifetime (in CCCCO): 0.79 ns | fluorescence lifetime (in CCCO): 0.72 ns | fluorescence lifetime (in CCO): 0.82 ns | fluorescence lifetime (in CO): 0.8 ns
SMILES: CCC1(CC)c2cc(-c3ccc(-c4ccc5c(c4)C(CC)(CC)c4cc(C(C)(C)C)ccc4-5)cc3)ccc2-c2ccc(C(C)(C)C)cc21

fluorescence lifetime (in ClCCl): 2.5 ns
SMILES: CCCCCCCCCCCCNc1cccc2[n+]1[B-](F)(F)n1c(c3cccc4cccc1c43)=N2

fluorescence lifetime (in ClC(Cl)Cl): 1.79 ns
SMILES: Cc1ccc(C2=Cc3ccc4ccccc4[n+]3[B-](F)(F)O2)cc1
